In ChEMBL document CHEMBL1201862, “PubChem BioAssay data set” (2004):
Active and inactive are the calls of the source.

Experiments:
cells = format: functional, cell-based
[1] = C. albicans growth with fluconazole, confirmation, fluorescence, retest (AID 2467); format: functional, cell-based
[2] = NIH-3T3 fibroblast cytotoxicity, dose response, cytotoxicity control, cell-based, fluorescence, Alamar Blue, secondary assay (AID 2327); format: functional;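 note: NIH-3T3 mouse fibroblasts cultured with fluconazole at 8 µg/mL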
[3] = Intein inhibitors as potential Tuberculosis drugs, a cytotoxicity screen. [Related pubchem assays (depositor defined):AID2221, AID2223, AID434968, AID435010, AID449749, AID449750, AID489010]; format: functional
[4] = miR-122 activators in hepatoma reporter cells, dose response, cell-based, Huh7 psiCHECK-miR122, Renilla luciferase, cherry-picked (AID 651956); format: functional;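 note: huh7 hepatoma cells stably carrying a psiCHECK-2 miR-122 sensor plasmid; renilla luciferase signal reporting endogenous miR-122 activity after 48 h compound exposure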
[5] = molecular target: T1, Calpain-2 catalytic subunit (Sus scrofa, UniProt P43367); test: pig calpain II inhibitor potency, dose response, biochemical, fluorogenic peptide substrate (AID 1420); format: functional
T1 sequence (P43367 whole entry): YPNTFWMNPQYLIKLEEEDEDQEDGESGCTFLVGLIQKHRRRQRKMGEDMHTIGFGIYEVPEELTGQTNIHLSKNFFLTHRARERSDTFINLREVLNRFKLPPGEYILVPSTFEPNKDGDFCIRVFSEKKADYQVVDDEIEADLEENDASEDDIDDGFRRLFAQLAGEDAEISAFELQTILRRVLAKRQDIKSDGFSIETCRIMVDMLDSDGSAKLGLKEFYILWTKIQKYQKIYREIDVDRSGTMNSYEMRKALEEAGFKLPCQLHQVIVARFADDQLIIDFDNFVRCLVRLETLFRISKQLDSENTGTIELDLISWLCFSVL

Cysteine protease ATG4B = molecular target: T2, Cysteine protease ATG4B (Homo sapiens, UniProt Q9Y4P1); format: functional;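 note: Fluorescence-based dose-response confirmation assay measuring inhibition of ATG4B activity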
T2 sequence (Q9Y4P1 whole entry): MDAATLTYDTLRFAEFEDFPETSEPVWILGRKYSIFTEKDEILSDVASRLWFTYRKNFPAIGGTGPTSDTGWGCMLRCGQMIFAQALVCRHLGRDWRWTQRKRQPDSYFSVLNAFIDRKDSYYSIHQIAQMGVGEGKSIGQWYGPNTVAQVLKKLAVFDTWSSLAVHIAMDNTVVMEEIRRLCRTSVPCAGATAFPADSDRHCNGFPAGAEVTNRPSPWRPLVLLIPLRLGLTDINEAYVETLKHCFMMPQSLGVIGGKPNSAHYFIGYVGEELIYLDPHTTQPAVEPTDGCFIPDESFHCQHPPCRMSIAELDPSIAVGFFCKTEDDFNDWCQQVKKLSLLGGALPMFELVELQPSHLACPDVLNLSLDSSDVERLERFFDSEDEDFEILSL

[6] = molecular target: Photoreceptor-specific nuclear receptor (Homo sapiens, UniProt Q9Y5X4); format: functional;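 note: potency for compounds that break the NR2E3 corepressor complex and count as activators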
[7] = molecular target: Dual specificity protein phosphatase 3 (Homo sapiens, UniProt P51452); test: VHR1 phosphatase inhibitors, biochemical (AID 1878)
Caspase-9 = molecular target: T3, Caspase-9 (Homo sapiens, UniProt P55211); test: caspase-9 enzyme inhibition, dose response, selectivity assay for caspase-6 inhibitor project, biochemical, fluorescence, plate reader, cherry-picked samples (AID 743293)
T3 sequence (P55211 whole entry): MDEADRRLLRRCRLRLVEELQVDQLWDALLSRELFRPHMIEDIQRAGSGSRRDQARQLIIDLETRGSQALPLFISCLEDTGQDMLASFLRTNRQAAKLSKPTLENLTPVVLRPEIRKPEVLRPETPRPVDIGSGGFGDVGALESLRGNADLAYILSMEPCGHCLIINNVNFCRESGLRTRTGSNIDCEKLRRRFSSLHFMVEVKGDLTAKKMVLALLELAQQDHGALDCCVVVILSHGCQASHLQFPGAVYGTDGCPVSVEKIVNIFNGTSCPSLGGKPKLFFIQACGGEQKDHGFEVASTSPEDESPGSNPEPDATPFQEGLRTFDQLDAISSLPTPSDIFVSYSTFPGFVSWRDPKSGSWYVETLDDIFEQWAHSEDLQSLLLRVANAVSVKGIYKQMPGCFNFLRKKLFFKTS

Phospholipase A2 = Phospholipase A2 (Homo sapiens, UniProt P04054); format: functional;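 note: confirmatory dose-response counterscreen on phospholipase A2, testing hits that came from an ultra-high-throughput screen for ATG4B inhibitors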
[8] = molecular target: Small ubiquitin-related modifier 2 (Homo sapiens, UniProt P61956); test: inhibitors of SUMO2 protein-protein interaction, dose response, selectivity assay for SUMO1 interaction inhibitor project, biochemical, FRET, human SUMO2, uHTS hits (AID 624384); format: functional; conditions: read-out: IC50_Mean
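Throughout, for CC50: cells exposed to compound for 72 hours before luminescence readout.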

Phospholipase A2, sequence (P04054 whole entry): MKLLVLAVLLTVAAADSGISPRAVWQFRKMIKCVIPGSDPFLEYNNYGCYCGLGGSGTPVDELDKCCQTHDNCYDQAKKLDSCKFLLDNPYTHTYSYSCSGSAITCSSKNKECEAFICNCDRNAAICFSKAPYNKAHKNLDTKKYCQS
Small ubiquitin-related modifier 2, sequence (P61956 whole entry): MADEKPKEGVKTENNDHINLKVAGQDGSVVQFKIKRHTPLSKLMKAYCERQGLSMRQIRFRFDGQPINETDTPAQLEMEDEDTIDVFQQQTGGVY
Dual specificity protein phosphatase 3, sequence (P51452 whole entry): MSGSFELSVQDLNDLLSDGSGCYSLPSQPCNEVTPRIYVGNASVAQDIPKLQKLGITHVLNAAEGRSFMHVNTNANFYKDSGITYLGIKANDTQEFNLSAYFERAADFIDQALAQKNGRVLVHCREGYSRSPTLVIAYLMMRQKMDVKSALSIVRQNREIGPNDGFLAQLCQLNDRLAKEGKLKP
Photoreceptor-specific nuclear receptor, sequence (Q9Y5X4 whole entry): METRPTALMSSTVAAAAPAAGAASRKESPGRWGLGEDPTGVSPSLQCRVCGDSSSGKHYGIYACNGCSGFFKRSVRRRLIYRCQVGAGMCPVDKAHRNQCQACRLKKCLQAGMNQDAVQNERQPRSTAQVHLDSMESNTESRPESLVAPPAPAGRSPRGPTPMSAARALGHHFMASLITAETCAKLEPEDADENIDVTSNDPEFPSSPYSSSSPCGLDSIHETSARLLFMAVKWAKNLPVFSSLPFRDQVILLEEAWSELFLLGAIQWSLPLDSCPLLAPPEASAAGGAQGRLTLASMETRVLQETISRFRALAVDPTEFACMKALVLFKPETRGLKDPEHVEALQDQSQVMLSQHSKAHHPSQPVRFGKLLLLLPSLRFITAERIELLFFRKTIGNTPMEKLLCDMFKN

SMILES | EC50 (cells) | EC50 [1] | EC50 [2] | CC50 [3] | AC50 [4] | IC50 [5] | IC50 (Cysteine protease ATG4B) | IC50 [6] | IC50 [7] | AC50 (Caspase-9) | IC50 (Phospholipase A2) | IC50 [8]
CCC(=O)NC(c1ccc(OC)cc1)c1cc(Cl)c2cccnc2c1O (configuration not stated) | > 350 µM (not active) | 0.769 µM (active) | 12.6 µM (inconclusive) |  |  |  |  |  |  |  |  | 
CCCCCCCCCCn1c2c(c(=N)c3c1CCC3)CCC2 |  | 0.779 µM (active) | 26.1 µM (active) | 8.51 µM (active) | 5.06 µM (active) | 6.72 µM (active) |  |  |  |  |  | 
Cn1nc(-c2ccccn2)nc2c(=O)n(C)c(=O)nc1-2 |  |  |  | > 40 µM (active) |  |  | 2.07 µM (active) | > 39.8 µM (not active) | 10.2 µM (active) | 0.317 µM (active) | > 80 µM (inactive) | 
COc1ccc(NS(=O)(=O)c2ccc3c(c2)[C@H]2C=CC[C@H]2[C@@H](c2ccc(C(=O)O)cc2)N3)cc1 |  |  |  |  |  |  | 5.28 µM (active) |  |  |  | 6.87 µM (active) | 5.81 µM (active)
